The subject of assay [1] is U-87 MG cells. The assay can be described thus: Cell proliferation assay (CCK-8, day 10) in U-87 MG cells. Type of assay: cell-based. To be noted: Homo sapiens, 240 h, U-87 MG cell line, read-out: Prolif. IC50. The procedure: Cell Proliferation Assay to Determine IC50 in Granta-519 and U-87 MG Cells
One day before experiment, Granta-519 cells were passaged to a density of 0.5×10^6 cells/ml. U-87 MG cells were trypsinized and 2,000 cells were seeded into 96-well plates and allow to grow overnight. On the day of experiment (day 0), Granta-519 Cells were spun down at 1,500 rpm for 4 min, resuspended in fresh medium to 0.5×10^6 cells/ml and 190 ul of cells were added to 96 well plates. For U-87 MG cells, old medium was removed and replaced with 190 uL fresh medium. Compound working stocks were first diluted at 1:50 with fresh medium in 96 well plate and 10 μL of diluted drugs were added to 96 well plates containing cells and incubated for 3 days. DMSO was used a vehicle control.
One day 3, 50 uL of Granta-519 cells were transferred to a new 96-well plate and 140 uL fresh medium was added. For U-87 MG cells, old medium was removed and replaced with 190 uL fresh medium. Compound working stocks were freshly diluted at 1:50 with medium and 10 μL of diluted drugs were added to cells and grow for 3additional days. The same process was repeated on day 6. Cells were allowed to grow for additional 4 days.
On day 10, 100 uL Granta-519 cells were transferred to a new 96 well plate and 10 μL of Cell Counting Kit-8 (CCK-8, Jojindo, CK04-13) solution was added. For U-87 MG cells, old medium was removed and replaced with 100 uL fresh medium and 10 uL CCK-8 solution was added. Plates were incubated in CO2 incubator for 2 hours (Granta-519 cells) or 30 min (U-87 MG cells) and OD450 values were measured with a microplate reader (iMark microplate reader, Bio-Rad). Percentage of viable cells, relative to DMSO vehicle control, were calculated and plotted in Graphpad Prism ([Inhibitor] vs. normalized response-Variable slope) to determine proliferation IC50 values on day 10.

Assay [2] deals with PRMT5/MEP50 complex (Homo sapiens (Human), UniProt O14744). The assay can be described thus: Biochemical assay: PRMT5/MEP50 methylation of histone H4 based AcH4-23, SPA readout. To be noted: PRMT5/MEP50 2.5 nM, 300 nM AcH4-23, 1 μM 3H-SAM. The procedure: Biochemical Assay Protocol
Compounds were solubilized and 3-fold diluted in 100% DMSO. […] Standard reactions were performed in a total volume of 30 μl in assay buffer, with 300 nM histone H4 based AcH4-23 (Anaspec: AS-65002) as substrate. To this was added the PRMT5/MEP50 complex diluted to provide a final assay concentration of 2.5 nM and the compounds were allowed to preincubate for 20 minutes at 37° C. The reaction was initiated by adding S-[3H-methyl]-adenosyl-L-methionine (PerkinElmer: NET155001MC) to final concentration of 1 μM. Following a 30 minutes incubation at 37° C., the reaction was stopped by adding 25 μL of 8M Guanidine HCl. Prepare streptavidin YSI SPA beads (Perkinelmer: RPNQ0012) at 0.3 mg/mL in assay buffer. To each reaction, add 150 μL of SPA beads suspension, and incubated while shaking at room temperature for 30 minutes. The plate was centrifuged at 100×g for 30 second before reading in a scintillation counter. IC50 values were determined by fitting the data to the standard 4 parameters with Hill Slope using GraphPad Prism software.

The test system of assay [3] is sDMA marks (SmD3me2s) in U-87 MG cells. The assay can be described thus: Western blotting for symmetric di-methyl arginine (sDMA) marks in U-87 MG cells. Type of assay: cell-based. The following applies: Homo sapiens, 72 h; U-87 MG cell line, 3 days. The procedure:
Cell Treatment and Western Blotting for Detecting Symmetric Di-Methyl Arginine (sDMA) Marks
Compound Titration and Cell Culture:
Compounds were dissolved in DMSO to make 10 mM stock and 3-fold series dilutions were further conducted to make working stocks top at 1 mM. Granta-519 cells were maintained in PRMI 1640 (Corning Cellgro, Catalog #: 10-040-CV) supplemented with 10% v/v FBS (GE Healthcare, Catalog #: SH30910.03) and U-87 MG cells were maintained in DMEM (Corning Cellgro, Catalog #: 10-013-CV) with 10% FBS and 2 mM Glutamin (Corning Cellgro, Catalog #25005CV).
To determine enzyme inhibition IC50 values in Granta-519 and U-87 MG cells using Western Blot analysis. One day before experiment, Granta-519 cells were passaged to a density of 0.5×10^6 cells/ml. U-87 MG cells were trypsinized and 4×10^5 cells were seeded into 6-well plates and allow to grow overnight. The next day, Granta-519 cells were spun down at 1,500 rpm for 4 min, resuspend in fresh medium at 0.5×10^6 cells/ml and 3 mL of culture (1.5×10^6 cells) were seeded into 6 well plate. Eight-point, 3-fold serial dilutions of compound working stocks were added to cells (3 ul, 1:1,000 dilution, DMSO concentration was 0.1%; final top concentration at 1 uM) and incubated for 3 days. Cells incubated with DMSO was used as a vehicle control.
Cells were harvested 3 days later, resuspended in 15 uL PBS, lysed in 4% SDS, and homogenized by passing through homogenizer column (Omega Biotek, Catalog #: HCR003). Total protein concentrations were determined by BCA assay (ThermoFisher Scientific, Catalog #: 23225). Lysates were mixed with 5× Laemmli buffer and boiled for 5 min. Forty ug of total protein was separated on SDS-PAGE gels (Bio-Rad, catalog #: 4568083, 4568043), transferred to PVDF membrane, blocked with 5% dry milk (Bio-Rad, Catalog #: 1706404) in TBS with 0.1% v/v Tween 20 (TBST) for 1 hour at room temperature (RT), and incubated with primary antibodies (sDMA: Cell signaling, Catalog #: 13222, 1:3,000; β-Actin: sigma, Catalog #: 1:5,000) in 5% dry milk in TBST at 4° C. overnight. The next day, membranes were washed with TBST, 5×5 min, and incubated with HRP conjugated seconded antibody (GE Healthcare; Catalog #: NA934-1ML, NA931-1ML; 1:5,000) for 2 hours at RT, followed by 5×5 min washes with TBST, and incubation with ECL substrates (Bio-Rad, Catalog #: 1705061, 1705062). Chemiluminescent signal was captured with Fluochem HD2 imager (Proteinsimple). SmD3me2s bands were quantified by ImageJ. Signals were normalized to β-Actin and DMSO control. IC50 values were calculated using Graphpad Prism ([Inhibitor] vs. normalized response-Variable slope).
A general note: A western blot detects proteins with antibodies after separation by electrophoresis.

Sequence of PRMT5/MEP50 complex (O14744 whole entry): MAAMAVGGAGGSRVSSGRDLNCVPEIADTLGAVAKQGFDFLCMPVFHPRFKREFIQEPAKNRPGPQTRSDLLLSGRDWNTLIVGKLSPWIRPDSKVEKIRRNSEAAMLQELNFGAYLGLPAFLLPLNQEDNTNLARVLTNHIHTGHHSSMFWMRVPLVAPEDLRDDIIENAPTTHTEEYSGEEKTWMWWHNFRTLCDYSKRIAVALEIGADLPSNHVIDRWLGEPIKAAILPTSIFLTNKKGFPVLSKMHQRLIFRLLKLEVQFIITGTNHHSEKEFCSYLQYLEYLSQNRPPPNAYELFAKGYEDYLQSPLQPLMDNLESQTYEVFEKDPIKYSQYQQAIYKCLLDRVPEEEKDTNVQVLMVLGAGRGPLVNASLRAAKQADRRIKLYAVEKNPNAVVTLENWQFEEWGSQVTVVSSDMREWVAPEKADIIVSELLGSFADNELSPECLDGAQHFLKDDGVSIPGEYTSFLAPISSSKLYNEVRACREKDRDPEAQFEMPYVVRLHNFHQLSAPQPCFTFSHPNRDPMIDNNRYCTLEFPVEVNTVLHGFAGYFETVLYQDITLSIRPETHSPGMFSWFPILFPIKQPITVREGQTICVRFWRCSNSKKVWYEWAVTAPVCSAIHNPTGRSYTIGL
Sequence of PRMT5/MEP50 complex (Q9BQA1 whole entry partner): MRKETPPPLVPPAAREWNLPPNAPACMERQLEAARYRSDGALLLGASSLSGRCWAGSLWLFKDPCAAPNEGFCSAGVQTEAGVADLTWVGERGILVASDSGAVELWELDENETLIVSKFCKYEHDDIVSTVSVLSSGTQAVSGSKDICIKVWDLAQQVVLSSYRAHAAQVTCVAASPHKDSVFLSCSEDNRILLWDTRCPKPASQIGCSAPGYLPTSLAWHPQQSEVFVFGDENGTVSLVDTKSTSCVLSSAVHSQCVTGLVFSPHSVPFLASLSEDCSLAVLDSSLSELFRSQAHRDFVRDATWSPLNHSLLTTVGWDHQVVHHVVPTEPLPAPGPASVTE

The IC50 is the concentration at which inhibition is half-maximal. For `Nc1ncnc2c1ccn2[C@@H]1C[C@H]([C@@H]2OCc3cc(Cl)ccc32)[C@@H](O)[C@H]1O` [Example 2B, (1R,2S,3R,5S)-3-(4-amino-7H-pyrrolo[2,3-d]pyrimidin-7-yl)-5-((S)-5-chloro-1,3-dihydroisobenzofuran-1-yl)cyclopentane-1,2-diol], the IC50 in assay [1] was over 1000 nM; in assay [2], 31 nM; in assay [3], 563 nM.
For `Nc1ncnc2c1ccn2[C@@H]1O[C@H]([C@@H]2OCc3cc(F)c(F)cc32)[C@@H](O)[C@H]1O` [Example 4, (2R,3R,4S,5S)-2-(4-amino-7H-pyrrolo[2,3-d]pyrimidin-7-yl)-5-((R)-5,6-difluoro-1,3-dihydroisobenzofuran-1-yl)tetrahydrofuran-3,4-diol], the IC50 in assay [1] was determined as 95 nM; in assay [2] it was 1.5 nM; in assay [3], 31 nM.
For `Cc1ncnc2c1ccn2[C@@H]1O[C@H]([C@@H]2OCCc3cc(Cl)ccc32)[C@@H](O)[C@H]1O` [Example 22, (2S,3S,4R,5R)-2-((R)-6-chloroisochroman-1-yl)-5-(4-methyl-7H-pyrrolo[2,3-d]pyrimidin-7-yl)tetrahydrofuran-3,4-diol], the IC50 in assay [1] worked out at 54 nM; in assay [2], 4.8 nM; in assay [3], 17.6 nM.
On the same counts, the results for `Cc1ncnc2c1ccn2[C@@H]1O[C@H]([C@@H]2OCOCc3cc(Cl)ccc32)[C@@H](O)[C@H]1O` [Example 55, (2S,3S,4R,5R)-2-((R)-7-chloro-1,5-dihydrobenzo[e][1,3]dioxepin-1-yl)-5-(4-methyl-7H-pyrrolo[2,3-d]pyrimidin-7-yl)tetrahydrofuran-3,4-diol] are 10000 nM, 11.7 nM and 4580 nM.
On the same counts, the results for `Nc1ncnc2c1ccn2[C@@H]1O[C@H]([C@@H]2OCCc3cc(Cl)ccc32)[C@@H](O)[C@H]1O` [Example 68, (2R,3R,4S,5S)-2-(4-amino-7H-pyrrolo[2,3-d]pyrimidin-7-yl)-5-((R)-6-chloroisochroman-1-yl)tetrahydrofuran-3,4-diol] are 9.1 nM, 1.2 nM and 2.58 nM.
Regarding `CNc1ncnc2c1ccn2[C@@H]1O[C@H]([C@@H]2OCCc3cc(Cl)ccc32)[C@@H](O)[C@H]1O` [Example 69, (2S,3S,4R,5R)-2-((R)-6-chloroisochroman-1-yl)-5-(4-(methylamino)-7H-pyrrolo[2,3-d]pyrimidin-7-yl)tetrahydrofuran-3,4-diol], the values for the IC50 in assay [1], in assay [2] and in assay [3] were 181 nM, 14.9 nM and 109 nM, respectively.
For the molecule `Cc1ncnc2c1ccn2[C@@H]1O[C@H]([C@@H]2OCCc3ccc(Cl)cc32)[C@@H](O)[C@H]1O` [Example 70, (2S,3S,4R,5R)-2-((R)-7-chloroisochroman-1-yl)-5-(4-methyl-7H-pyrrolo[2,3-d]pyrimidin-7-yl)tetrahydrofuran-3,4-diol], the half-inhibitory concentration (IC50) in assay [1] was 458 nM; in assay [2] it was 303 nM; in assay [3], 382 nM.
In the case of `Nc1ncnc2c1ccn2[C@@H]1O[C@H]([C@@H]2OCCc3ccc(Cl)cc32)[C@@H](O)[C@H]1O` [Example 71, (2R,3R,4S,5S)-2-(4-amino-7H-pyrrolo[2,3-d]pyrimidin-7-yl)-5-((R)-7-chloroisochroman-1-yl)tetrahydrofuran-3,4-diol], the concentration for half-maximal inhibition (IC50) in assay [1] came out at 73 nM; in assay [2], 6.2 nM; in assay [3], 29.7 nM.
Consider `Nc1ncnc2c1ccn2[C@@H]1O[C@H]([C@@H]2OCCc3c(Cl)cccc32)[C@@H](O)[C@H]1O` [Example 72, (2R,3R,4S,5S)-2-(4-amino-7H-pyrrolo[2,3-d]pyrimidin-7-yl)-5-((R)-5-chloroisochroman-1-yl)tetrahydrofuran-3,4-diol], for which the IC50 in assay [1] came out at 78 nM; in assay [2] it was 2.98 nM.
`Nc1ncnc2c1ccn2[C@@H]1O[C@H]([C@@H]2OCCc3cc(F)c(F)cc32)[C@@H](O)[C@H]1O` [Example 73, (2R,3R,4S,5S)-2-(4-amino-7H-pyrrolo[2,3-d]pyrimidin-7-yl)-5-((R)-6,7-difluoroisochroman-1-yl)tetrahydrofuran-3,4-diol]: the IC50 in assay [1] was found to be 9.1 nM; in assay [2], 1.45 nM.
For `Cc1ncnc2c1ccn2[C@@H]1O[C@H]([C@@H]2OCCc3cc(F)c(F)cc32)[C@@H](O)[C@H]1O` [Example 74, (2S,3S,4R,5R)-2-((R)-6,7-difluoroisochroman-1-yl)-5-(4-methyl-7H-pyrrolo[2,3-d]pyrimidin-7-yl)tetrahydrofuran-3,4-diol] the same measures were 66 nM and 7.28 nM.
On the same counts, the results for `Cc1ncnc2c1ccn2[C@@H]1O[C@H]([C@@H]2OCCc3c(Cl)cccc32)[C@@H](O)[C@H]1O` [Example 75, (2S,3S,4R,5R)-2-((R)-5-chloroisochroman-1-yl)-5-(4-methyl-7H-pyrrolo[2,3-d]pyrimidin-7-yl)tetrahydrofuran-3,4-diol] are 339 nM and 15.1 nM.
Turning to `Cc1ncnc2c1ccn2[C@@H]1O[C@H]([C@@H]2OCCc3c2ccc(Cl)c3F)[C@@H](O)[C@H]1O` [Example 83, (2S,3S,4R,5R)-2-((R)-6-chloro-5-fluoroisochroman-1-yl)-5-(4-methyl-7H-pyrrolo[2,3-d]pyrimidin-7-yl)tetrahydrofuran-3,4-diol], the IC50 in assay [1] stood at 377 nM; in assay [2] it was 13.2 nM; in assay [3], 199 nM.
On the same counts, the results for `Nc1ncnc2c1ccn2[C@@H]1O[C@H]([C@@H]2OCCc3c2ccc(Cl)c3F)[C@@H](O)[C@H]1O` [Example 84, (2R,3R,4S,5S)-2-(4-amino-7H-pyrrolo[2,3-d]pyrimidin-7-yl)-5-((R)-6-chloro-5-fluoroisochroman-1-yl)tetrahydrofuran-3,4-diol] are 94 nM, 4.4 nM and 27.6 nM.

The record behind these values is US10711007B2, “Selective inhibitors of protein arginine methyltransferase 5 (PRMT5)” (Prelude Therapeutics, Incorporated, priority 2018, dated 2020).
